Earlier results, collected in publication PMC13427755 (Nature Communications, 2026).
Where two headings read alike, the source gives them in different places.

Test system: SP-D
Conditions: at 12 weeks, cited from earlier work

Row | SMILES | decrease in SP-D (CAPACITY study of pirfenidone) [%] | decrease in SP-D (INMARK study of nintedanib) [%]
1 | Cc1ccc(=O)n(-c2ccccc2)c1 [pirfenidone] | 5 | 
2 | COC(=O)c1ccc2c(c1)NC(=O)/C2=C(\Nc1ccc(N(C)C(=O)CN2CCN(C)CC2)cc1)c1ccccc1 [nintedanib] |  | 4
